Experimental data reported in paper PMC8630787 (ACS Sensors, 2021).
pIC50: −log10 of the molar value.

Molecular target: dihydroorotate dehydrogenase (DHODH) (Homo sapiens, UniProt Q02127)
Experiment: colorimetric DCIP reduction enzyme assay ([…] DHODH, L-DHO, coenzyme Q10)
Format: biochemical

dihydroorotate dehydrogenase (DHODH), sequence (Q02127 whole entry): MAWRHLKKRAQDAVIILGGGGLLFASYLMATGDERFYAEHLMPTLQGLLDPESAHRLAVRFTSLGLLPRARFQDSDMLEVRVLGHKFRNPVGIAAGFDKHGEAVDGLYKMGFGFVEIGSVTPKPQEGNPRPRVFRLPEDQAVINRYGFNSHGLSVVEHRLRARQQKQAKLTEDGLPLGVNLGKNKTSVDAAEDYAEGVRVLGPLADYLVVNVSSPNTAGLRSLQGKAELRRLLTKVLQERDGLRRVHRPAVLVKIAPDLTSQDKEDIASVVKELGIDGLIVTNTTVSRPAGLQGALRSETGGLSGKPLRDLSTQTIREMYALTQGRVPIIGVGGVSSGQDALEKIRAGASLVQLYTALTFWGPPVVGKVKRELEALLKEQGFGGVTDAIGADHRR

Row | Compound | pIC50
1 | C/C(O)=C(\C#N)C(=O)Nc1ccc(OC(F)(F)F)cc1 [CF3O-TF] | 6.48
2 | C/C(O)=C(\C#N)C(=O)Nc1ccc(S(F)(F)(F)(F)F)cc1 [SF5-TF] | 6.24
3 | C/C(O)=C(\C#N)C(=O)Nc1cc(C(F)(F)F)cc(C(F)(F)F)c1 [di-CF3-TF] | 5.88
